Experimental data as given in patent US20170349532A1, “CATIONIC LIPID” (Kyowa Hakko Kirin Co., Ltd., priority 2011, published 2017).

Experiment: Average particle diameter of preparation (Zetasizer Nano ZS)
Type: physicochemical
Details: for Particle diameter of Preparetion: average particle diameter of cationic lipid/nucleic acid complex, Example 118 preparation: compound/PEG-DMPE Na/DSPC/cholesterol with apo-b siRNA
Outline: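 Lipid nanoparticles formed by mixing cationic lipid/PEG-DMPE Na/DSPC/cholesterol (8.947/1.059/5.708/13.697 mmol/L in 90% ethanol, 37 °C) with apo-b siRNA in Tris-EDTA/citrate buffer pH 5.0, then diluted with citrate/NaCl pH 6.0 and DPBS to 10 μM siRNA. Mean complex diameter measured by dynamic light scattering.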

| Compound | Particle diameter of Preparetion | average particle diameter of the complex between the cationic lipis and the nucleic acid in the preparation (Comparative Examples 1 to 8, prepared as Example 118 with apo-b siRNA) |
| --- | --- | --- |
| CCCCC/C=C\C/C=C\CCCCCCCCO[C@@H]1CN(CCC(N)=O)C[C@H]1OCCCCCCCC/C=C\C/C=C\CCCCC [Compound 57, 3-((3R,4R)-3,4-bis((9Z,12Z)-Octadec-9,12-dienyloxy)pyrrolidin-1-yl)propanamide] | 159.2 nm | – |
| CCCCCCCC/C=C\CCCCCCCCOCCN(CCOCCCCCCCC/C=C\CCCCCCCC)C(=O)CN [Compound 86, 2-Amino-N,N-bis(2-((Z)-octadec-9-enyloxy)ethyl)acetamide] | 128.4 nm | – |
| CCCCCCCCCCCCCCCCCCO[C@@H]1CNC[C@H]1OCCCCCCCCCCCCCCCCCC [Compound 39, (3R,4R)-3,4-bis(Octadecyloxy)pyrrolidine] | 444.5 nm | – |
| CCCCCCCC/C=C\CCCCCCCCOC[C@@H]1CN(C)C[C@H]1COCCCCCCCC/C=C\CCCCCCCC (relative stereo) [Compound 106, trans-1-Methyl-3,4-bis(((Z)-octadec-9-enyloxy)methyl)pyrrolidine] | 139.2 nm | – |
| CCCCCCCCCCCCCCCCOCCN(C)CCOCCCCCCCCCCCCCCCC [Compound 76, N,N-bis(2-(Hexadecyloxy)ethyl)-N-methylamine] | 133.6 nm | – |
| CCCCCCCC/C=C\CCCCCCCCOCCN(CCOCCCCCCCC/C=C\CCCCCCCC)C(=O)[C@@H](N)CO [Compound 91, (S)-2-Amino-3-hydroxy-N,N-bis(2-((Z)-octadec-9-enyloxy)ethyl)propanamido] | 125.4 nm | – |
| CCCCCCCC/C=C\CCCCCCCC(=O)OCCN(C)CCOC(=O)CCCCCCC/C=C\CCCCCCCC [Compound A-6, N-Methyl-N,N-bis(2-((Z)-1-oxooctadec-9-enyloxy)ethyl)amine, reference compound] | – | 139.5 nm |
| CCCCC/C=C\C/C=C\CCCCCCCCOCCN(C)CCOCCCCCCCC/C=C\C/C=C\CCCCC [Compound 32, N-Methyl-N,N-bis(2-((9Z,12Z)-octadec-9,12-dienyloxy)ethyl)amine] | 154.2 nm | – |
| CCCCC/C=C\C/C=C\CCCCCCCCCCOC[C@@H]1CN(C(=O)[C@@H](N)CCCCN)C[C@H]1COCCCCCCCCCC/C=C\C/C=C\CCCCC [Compound 115, trans-1-((S)-2,6-Diaminohexanoyl)-3,4-bis(((11Z,14Z)-icos-11,14-dienyloxy)methyl)pyrrolidine] | 152.8 nm | – |
| CCCCC/C=C\C/C=C\CCCCCCCC(=O)O[C@@H]1CN(C(=O)[C@@H](N)CCCCN)C[C@H]1OC(=O)CCCCCCC/C=C\C/C=C\CCCCC [Compound 66, (3R,4R)-1-((S)-2,6-Diaminohexanoyl)pyrrolidine-3,4-diyl di((9Z,12Z)-octadec-9,12-enoate)] | 137.4 nm | – |
| CCCCCCCCCCCCCCCCO[C@@H]1CNC[C@H]1OCCCCCCCCCCCCCCCC [Compound 38, (3R,4R)-3,4-bis(Hexadecyloxy)pyrrolidine] | 157.2 nm | – |
| CCCCC/C=C\C/C=C\CCCCCCCCO[C@@H]1CN(CCC(=O)N(C)C)C[C@H]1OCCCCCCCC/C=C\C/C=C\CCCCC [Compound 58, 3-((3R,4R)-3,4-bis((9Z,12Z)-Octadec-9,12-dienyloxy)pyrrolidin-1-yl)-N,N-dimethylpropanamide] | 151.8 nm | – |
| CCCCC/C=C\C/C=C\CCCCCCCCO[C@@H]1CN(C(=O)CN(C)C)C[C@H]1OCCCCCCCC/C=C\C/C=C\CCCCC [Compound 25, (3R,4R)-1-(2-(Dimethylamino)acetyl)-3,4-bis((9Z,12Z)-octadec-9,12-dienyloxy)pyrrolidine] | 126.0 nm | – |
| CCCCCCCC/C=C\CCCCCCCCOCCN(CCOCCCCCCCC/C=C\CCCCCCCC)C(=O)CCN(C)C [Compound 90, 3-(Dimethylamino)-N,N-bis(2-((Z)-octadec-9-enyloxy)ethyl)propanamido] | 120.8 nm | – |
| CCCCCCCC/C=C\CCCCCCCCOCCNCCOCCCCCCCC/C=C\CCCCCCCC [Compound 67, bis(2-((Z)-Octadec-9-enyloxy)ethyl)amine] | 127.6 nm | – |
| CCCCC/C=C\C/C=C\CCCCCCCC(=O)OC[C@@H]1C[N+](C)(C)C[C@H]1COC(=O)CCCCCCC/C=C\C/C=C\CCCCC.[Cl-] (relative stereo) [Compound 114, trans-1,1-Dimethyl-3,4-bis(((9Z,12Z)-octadec-9,12-dienoyloxy)methyl)pyrrolidinium chloride] | 108.2 nm | – |
| CCCCC/C=C\C/C=C\CCCCCCCCO[C@@H]1CN(C)C[C@H]1OCCCCCCCC/C=C\C/C=C\CCCCC [Compound 10, (3R,4R)-1-Methyl-3,4-bis((9Z,12Z)-octadec-9,12-dienyloxy)pyrrolidine] | 153.9 nm | – |

| Compound | Particle diameter of Preparetion | average particle diameter of the complex between the cationic lipis and the nucleic acid in the preparation (Comparative Examples 1 to 8, prepared as Example 118 with apo-b siRNA) |
| --- | --- | --- |
| CCCCCCCC/C=C\CCCCCCCCOCC[N+](C)(C)CCOCCCCCCCC/C=C\CCCCCCCC.[Cl-] [Compound 80, N,N-diMethyl-N,N-bis(2-((Z)-octadec-9-enyloxy)ethyl)aminium chloride] | 110.3 nm | – |
| CCCCCCCC/C=C\CCCCCCCC(=O)OCCN(CCOC(=O)CCCCCCC/C=C\CCCCCCCC)C(=O)CN [Compound 95, 2-Amino-N,N-bis(2-((Z)-octadec-9-enoyloxy)ethyl)acetamide] | 128.3 nm | – |
| CCCCCC/C=C\CCCCCCCCOCCNCCOCCCCCCCC/C=C\CCCCCC [Compound 72, bis(2-((Z)-Hexadec-9-enyloxy)ethyl)amine] | 130.6 nm | – |
| CCCCCCCC/C=C\CCCCCCCC(=O)OCCNCCOC(=O)CCCCCCC/C=C\CCCCCCCC [Compound 73, N,N-bis(2-((Z)-Octadec-9-enoyloxy)ethyl)amine] | 146.8 nm | – |
| CCCCCC/C=C\CCCCCCCCO[C@@H]1CN(C)C[C@H]1OCCCCCCCC/C=C\CCCCCC [Compound 14, (3R,4R)-3,4-bis((Z)-Hexadec-9-enyloxy)-1-methylpyrrolidine] | 139.3 nm | – |
| CCCCC/C=C\C/C=C\CCCCCCCCO[C@@H]1CN(C(=O)CCCCCN)C[C@H]1OCCCCCCCC/C=C\C/C=C\CCCCC [Compound 64, (3R,4R)-1-(6-Aminohexanoyl)-3,4-bis((9Z,12Z)-octadec-9,12-dienyloxy)pyrrolidine] | 146.0 nm | – |
| CCCCCCCC/C=C\CCCCCCCCCCO[C@@H]1CN(C)C[C@H]1OCCCCCCCCCC/C=C\CCCCCCCC [Compound 49, (3R,4R)-3,4-bis((Z)-Icos-11-enyloxy)-1-methylpyrrolidine] | 141.7 nm | – |
| CCCCCCCC/C=C\CCCCCCCCOCCN(C)CCOCCCCCCCC/C=C\CCCCCCCC [Compound 33, N-Methyl-N,N-bis(2-((Z)-octadec-9-enyloxy)ethyl)amine] | 152.1 nm | – |
| CCCCC/C=C\C/C=C\CCCCCCCCO[C@@H]1CN(CCCN(C)C)C[C@H]1OCCCCCCCC/C=C\C/C=C\CCCCC [Compound 59, (3R,4R)-1-(3-N,N-Dimethylaminopropyl)-3,4-bis((9Z,12Z)-octadec-9,12-dienyloxy)pyrrolidine] | 116.7 nm | – |
| CCCCCCCC/C=C\CCCCCCCCO[C@@H]1CN(C)C[C@H]1OCCCCCCCC/C=C\CCCCCCCC [Compound 12, (3R,4R)-1-Methyl-3,4-bis((Z)-octadec-9-enyloxy)pyrrolidine] | 161.3 nm | – |
| CCCCC/C=C\C/C=C\CCCCCCCCO[C@@H]1CN(C(=O)CCN)C[C@H]1OCCCCCCCC/C=C\C/C=C\CCCCC [Compound 62, (3R,4R)-1-(3-Aminopropanoyl)-3,4-bis((9Z,12Z)-octadec-9,12-dienyloxy)pyrrolidine] | 151.3 nm | – |
| CCCCCCCCCCCCCCOCCNCCOCCCCCCCCCCCCCC [Compound 69, bis(2-(Tetradecyloxy)ethyl)amine] | 136.8 nm | – |
| CCCCCCCC/C=C\CCCCCCCC(=O)OCC[N+](C)(C)CCOC(=O)CCCCCCC/C=C\CCCCCCCC.[Cl-] [Compound 81, N,N-diMethyl-N,N-bis(2-((Z)-octadec-9-enoyloxy)ethyl)aminium chloride] | 103.4 nm | – |
| CCCC/C=C\CCCCCCCCO[C@@H]1CNC[C@H]1OCCCCCCCC/C=C\CCCC [Compound 40, (3R,4R)-3,4-bis((Z)-Tetradec-9-enyloxy)pyrrolidine] | 133.8 nm | – |
| CCCCC/C=C\C/C=C\CCCCCCCCO[C@@H]1CN(CC(O)CO)C[C@H]1OCCCCCCCC/C=C\C/C=C\CCCCC (stereo partly drawn) [Compound 24, 3-((3R,4R)-3,4-bis((9Z,12Z)-Octadec-9,12-dienyloxy)pyrrolidin-1-yl) propane-1,2-diol] | 160.7 nm | – |
| CCCCCCCCCCC/C=C\CCCCCO[C@@H]1CN(C)C[C@H]1OCCCCC/C=C\CCCCCCCCCCC [Compound 15, (3R,4R)-1-Methyl-3,4-bis((Z)-octadec-6-enyloxy)pyrrolidine] | 139.1 nm | – |
